Source: patent US20070027130A1, “Tricyclic 6-alkylidene-penem beta-lactamase inhibitors and beta-lactam antibiotic combination: a broad spectrum antibiotic” (priority 2005, published 2007)

Experiments:
Experiment in all cases: β-Lactamase inhibition, nitrocefin spectrophotometric assay
class B enzyme CcrA = class B enzyme CcrA (Bacteroides fragilis, UniProt P25910); assay type: biochemical; details: nitrocefin 50 μg/ml; 10 min preincubation at 25° C.; pH 7.0; read-out: IC50 Class-B Ccr
class C enzyme AmpC = class C enzyme AmpC (Enterobacter cloacae, UniProt P05364); assay type: biochemical
Sequence of class C enzyme AmpC (P05364 21-381): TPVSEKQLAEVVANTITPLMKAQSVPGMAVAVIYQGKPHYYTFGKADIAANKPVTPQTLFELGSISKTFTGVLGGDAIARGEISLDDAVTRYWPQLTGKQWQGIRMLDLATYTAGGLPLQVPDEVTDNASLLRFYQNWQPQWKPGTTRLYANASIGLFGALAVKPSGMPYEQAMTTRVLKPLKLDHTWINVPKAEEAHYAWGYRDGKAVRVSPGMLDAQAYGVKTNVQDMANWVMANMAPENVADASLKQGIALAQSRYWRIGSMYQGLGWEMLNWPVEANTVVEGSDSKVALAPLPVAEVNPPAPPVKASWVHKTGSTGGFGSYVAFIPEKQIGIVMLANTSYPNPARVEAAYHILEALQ

[1] = biological target: class A β-lactamase TEM-1 (Escherichia coli, UniProt P62593); assay type: biochemical, E. coli; details: nitrocefin 50 μg/ml; 10 min preincubation at 25° C.; pH 7.0
Sequence of class A β-lactamase TEM-1 (P62593 24-286 limits assumed): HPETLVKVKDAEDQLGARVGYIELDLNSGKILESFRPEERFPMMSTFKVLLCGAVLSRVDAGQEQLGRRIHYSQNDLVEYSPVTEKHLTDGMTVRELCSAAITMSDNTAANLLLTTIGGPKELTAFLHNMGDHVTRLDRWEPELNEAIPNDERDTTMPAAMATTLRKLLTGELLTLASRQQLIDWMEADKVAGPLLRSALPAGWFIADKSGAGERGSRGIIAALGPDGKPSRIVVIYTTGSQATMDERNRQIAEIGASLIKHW

[2] = biological target: class A β-lactamase Imi-1 (Enterobacter cloacae, UniProt Q46991)
Sequence of class A β-lactamase Imi-1 (Q46991 entry or part of it): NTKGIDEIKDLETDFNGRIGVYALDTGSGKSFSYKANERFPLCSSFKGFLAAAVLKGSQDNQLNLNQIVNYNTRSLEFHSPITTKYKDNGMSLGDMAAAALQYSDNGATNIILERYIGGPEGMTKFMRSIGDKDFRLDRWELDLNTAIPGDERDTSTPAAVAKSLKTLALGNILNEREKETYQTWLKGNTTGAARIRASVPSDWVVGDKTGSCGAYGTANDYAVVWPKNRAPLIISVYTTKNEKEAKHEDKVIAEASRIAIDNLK

Sequence of class B enzyme CcrA (P25910 19-249): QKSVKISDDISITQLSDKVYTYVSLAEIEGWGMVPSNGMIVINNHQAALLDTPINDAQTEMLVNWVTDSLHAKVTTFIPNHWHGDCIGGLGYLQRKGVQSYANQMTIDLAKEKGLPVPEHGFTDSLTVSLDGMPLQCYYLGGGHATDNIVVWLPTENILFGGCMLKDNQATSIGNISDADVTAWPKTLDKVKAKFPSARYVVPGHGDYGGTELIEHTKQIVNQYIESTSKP

Row | Compound | IC50 (class B enzyme CcrA) | IC50 (class C enzyme AmpC) | IC50 [1] | IC50 [2]
1 | O=C(O)C1=CS[C@@H]2/C(=C\c3cn4c5c(sc4n3)CCC5)C(=O)N12 [Compound 1, (5R),(6Z)-6-(6,7-dihydro-5H-cyclopenta[d]imidazo[2,1-b][1,3]thiazol-2-ylmethylene)-7-oxo-4-thia-1-azabicyclo[3.2.0]hept-2-ene-2-carboxylic acid] | 240 nM | 2.4 nM | 1.4 nM | –
2 | O=C(O)C1=CS[C@@H]2/C(=C\c3cn4c5c(sc4n3)COCC5)C(=O)N12 [Compound 2, (5R),(6Z)-6-(5,8-dihydro-6H-imidazo[2,1-b]pyrano[4,3-d][1,3]thiazol-2-ylmethylene)-7-oxo-4-thia-1-azabicyclo[3.2.0]hept-2-ene-2-carboxylic acid] | 200 nM | 1.5 nM | 2.8 nM | 100 nM
